Like-named read-outs stand apart in the source and are kept apart here.
How the values were obtained:
ALK = target: T1, ALK (Homo sapiens, UniProt Q9UM73); experiment: ALK Kinase Assay (ELISA/TRF, PLC-γ substrate); type: biochemical; details: read-out: ALK Potency
T1 construct: host or cells: baculovirus expression system
In short: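 Read-out is time-resolved fluorescence from a Eu-N1-labeled PT66 antibody that binds phosphorylated PLC-γ, the substrate coated at 10 μg/mL in TBS. ALK at 30 ng/ml starts the reaction, which runs 15 minutes at 37° C.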

JAK2 = target: T2, JAK2 (Homo sapiens, UniProt O60674); experiment: Recombinant Human JAK2 Kinase Assay (TRF); type: biochemical; details: read-out: JAK2 Potency
T2 construct: host or cells: baculovirus expression system
In short: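 Kinase activity of baculovirus-expressed JAK2 is followed on a surface-immobilised biotinylated peptide, with the reaction run for 20 min at room temperature in buffer containing 0.2 μM ATP and manganese. Phosphorylation is read with Eu-N1 PY100 antibody.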

[1] = ALK kinase inhibition, 1 μM ATP
[2] = JAK2 kinase inhibition, 0.2 μM ATP

T1 sequence (Q9UM73 19-1620): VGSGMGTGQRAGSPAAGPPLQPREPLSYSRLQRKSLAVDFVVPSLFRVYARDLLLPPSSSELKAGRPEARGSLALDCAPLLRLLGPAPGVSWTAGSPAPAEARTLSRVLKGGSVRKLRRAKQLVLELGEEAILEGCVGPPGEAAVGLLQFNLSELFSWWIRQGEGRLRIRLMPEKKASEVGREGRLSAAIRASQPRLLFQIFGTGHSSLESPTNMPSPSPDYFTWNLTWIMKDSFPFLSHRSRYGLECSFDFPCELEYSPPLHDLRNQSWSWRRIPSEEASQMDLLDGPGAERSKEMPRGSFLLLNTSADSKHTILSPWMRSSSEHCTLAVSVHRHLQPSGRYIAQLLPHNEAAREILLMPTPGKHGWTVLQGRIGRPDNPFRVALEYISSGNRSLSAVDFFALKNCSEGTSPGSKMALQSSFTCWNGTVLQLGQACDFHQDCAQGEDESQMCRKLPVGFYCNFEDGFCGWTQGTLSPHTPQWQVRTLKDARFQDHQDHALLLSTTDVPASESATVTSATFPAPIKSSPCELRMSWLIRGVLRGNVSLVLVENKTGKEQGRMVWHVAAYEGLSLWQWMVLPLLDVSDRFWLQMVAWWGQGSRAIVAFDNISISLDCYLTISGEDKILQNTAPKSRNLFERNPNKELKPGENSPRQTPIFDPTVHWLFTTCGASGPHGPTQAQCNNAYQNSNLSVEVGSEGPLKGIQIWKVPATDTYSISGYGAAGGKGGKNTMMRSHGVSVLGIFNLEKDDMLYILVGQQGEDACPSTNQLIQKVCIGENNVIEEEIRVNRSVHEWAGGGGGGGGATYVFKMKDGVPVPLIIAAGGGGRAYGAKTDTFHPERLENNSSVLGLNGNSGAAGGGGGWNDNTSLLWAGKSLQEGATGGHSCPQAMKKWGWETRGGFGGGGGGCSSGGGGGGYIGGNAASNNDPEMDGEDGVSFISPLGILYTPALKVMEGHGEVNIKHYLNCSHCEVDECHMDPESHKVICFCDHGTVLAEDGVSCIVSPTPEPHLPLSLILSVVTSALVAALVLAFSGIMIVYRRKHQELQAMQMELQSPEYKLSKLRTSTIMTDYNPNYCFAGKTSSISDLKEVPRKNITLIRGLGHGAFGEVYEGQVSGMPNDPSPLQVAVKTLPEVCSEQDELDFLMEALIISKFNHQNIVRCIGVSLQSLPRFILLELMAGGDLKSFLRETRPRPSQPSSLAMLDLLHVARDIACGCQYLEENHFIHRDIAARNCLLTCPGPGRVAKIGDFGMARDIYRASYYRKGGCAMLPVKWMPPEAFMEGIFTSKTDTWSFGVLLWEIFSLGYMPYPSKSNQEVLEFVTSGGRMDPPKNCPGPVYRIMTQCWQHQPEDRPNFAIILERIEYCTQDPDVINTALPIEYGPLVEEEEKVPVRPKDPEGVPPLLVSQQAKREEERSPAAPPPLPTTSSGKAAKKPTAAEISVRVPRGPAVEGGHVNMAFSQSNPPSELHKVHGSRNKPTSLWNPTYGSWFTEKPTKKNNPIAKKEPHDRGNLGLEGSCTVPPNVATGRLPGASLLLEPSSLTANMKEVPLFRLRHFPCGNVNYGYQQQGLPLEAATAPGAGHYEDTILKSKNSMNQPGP
T2 sequence (O60674 whole entry): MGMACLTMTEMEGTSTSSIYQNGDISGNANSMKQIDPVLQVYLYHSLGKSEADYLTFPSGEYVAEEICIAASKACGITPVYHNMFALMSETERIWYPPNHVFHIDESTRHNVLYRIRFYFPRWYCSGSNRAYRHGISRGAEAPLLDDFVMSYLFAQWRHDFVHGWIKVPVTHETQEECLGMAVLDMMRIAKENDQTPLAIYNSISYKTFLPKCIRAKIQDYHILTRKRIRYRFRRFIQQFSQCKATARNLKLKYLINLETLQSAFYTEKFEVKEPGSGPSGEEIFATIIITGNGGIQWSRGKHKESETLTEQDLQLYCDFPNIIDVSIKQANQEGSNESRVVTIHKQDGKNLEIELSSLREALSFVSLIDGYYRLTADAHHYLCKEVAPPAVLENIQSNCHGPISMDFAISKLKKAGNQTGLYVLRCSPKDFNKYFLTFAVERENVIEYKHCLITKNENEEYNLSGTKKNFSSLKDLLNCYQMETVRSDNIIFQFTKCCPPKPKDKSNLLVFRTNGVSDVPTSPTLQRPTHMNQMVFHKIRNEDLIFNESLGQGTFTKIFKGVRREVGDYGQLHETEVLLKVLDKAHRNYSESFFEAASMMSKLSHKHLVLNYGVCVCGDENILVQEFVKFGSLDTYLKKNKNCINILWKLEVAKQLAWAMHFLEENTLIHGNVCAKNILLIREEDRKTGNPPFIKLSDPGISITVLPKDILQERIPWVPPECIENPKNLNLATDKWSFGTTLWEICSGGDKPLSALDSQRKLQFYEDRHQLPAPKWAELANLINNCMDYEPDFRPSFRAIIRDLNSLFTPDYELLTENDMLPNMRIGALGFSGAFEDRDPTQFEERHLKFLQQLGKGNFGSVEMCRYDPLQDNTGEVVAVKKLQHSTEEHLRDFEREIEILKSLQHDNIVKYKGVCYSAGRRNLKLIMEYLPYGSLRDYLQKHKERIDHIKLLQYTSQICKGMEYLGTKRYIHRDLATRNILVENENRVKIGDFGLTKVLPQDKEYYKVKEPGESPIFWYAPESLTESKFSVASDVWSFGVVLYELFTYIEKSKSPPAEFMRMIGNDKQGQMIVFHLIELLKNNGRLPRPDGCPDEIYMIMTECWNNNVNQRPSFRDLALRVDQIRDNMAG

| SMILES | IC50 (ALK; [1]) | IC50 (JAK2; [2]) | IC50 (ALK; ALK Kinase Inhibition) | IC50 (JAK2; JAK2 Kinase Inhibition) |
| --- | --- | --- | --- | --- |
| COc1cc(C2CCN(CC(=O)N(C)C)CC2)ccc1Nc1ncc2ccc(-c3ccccc3N(C)S(C)(=O)=O)n2n1 [Example 810, 2-[4-(4-{7-[2-(Methanesulfonyl-methyl-amino)-phenyl]-pyrrolo[2,1-f][1,2,4]triazin-2-ylamino}-3-methoxy-phenyl)-piperidin-1-yl]-N,N-dimethyl-acetamide] | < 100 nM | 100 to 1000 nM | – | – |
| CN1CCN(c2cccc(Nc3ncc4ccc(-c5cccc(NCCS(C)(=O)=O)c5)n4n3)c2)CC1 [Example 894, {7-[3-(2-Methanesulfonyl-ethylamino)-phenyl]-pyrrolo[2,1-f][1,2,4]triazin-2-yl}-[3-(4-methyl-piperazin-1-yl)-phenyl]-amine] | 100 to 1000 nM | < 100 nM | – | – |
| CN(c1ncccc1Nc1ccc2cnc(Nc3ccc(N4CCOCC4)cc3)nn12)S(C)(=O)=O [Example 385, N-Methyl-N-{3-[2-(4-morpholin-4-yl-phenylamino)-pyrrolo[2,1-f][1,2,4]triazin-7-ylamino]-pyridin-2-yl}-methanesulfonamide] | – | – | 1000 to 10000 nM | < 100 nM |
| COc1ccc(-c2ccc3cnc(Nc4ccc5[nH]c(=O)[nH]c5c4)nn23)cn1 [Example 1309, 5-[7-(6-Methoxy-pyridin-3-yl)-pyrrolo[2,1-f][1,2,4]triazin-2-ylamino]-1,3-dihydro-benzimidazol-2-one] | 1000 to 10000 nM | < 100 nM | – | – |
| CN1C(=O)Cc2cc(Nc3ncc4ccc(-c5cccnc5)n4n3)ccc21 [Example 374, 1-Methyl-5-(7-pyridin-3-yl-pyrrolo[2,1-f][1,2,4]triazin-2-ylamino)-1,3-dihydro-indol-2-one] | – | – | 1000 to 10000 nM | < 100 nM |
| CC(C)(O)CN1CCN(c2cccc(Nc3ncc4ccc(-c5cccc(Cl)c5)n4n3)c2)CC1 [Example 220, 1-(4-{3-[7-(3-Chloro-phenyl)-pyrrolo[2,1-f][1,2,4]triazin-2-ylamino]-phenyl}-piperazin-1-yl)-2-methyl-propan-2-ol] | – | – | 100 to 1000 nM | < 100 nM |
| COc1cc(N2CCC(C)(N3CCOCC3)CC2)ccc1Nc1ncc2ccc(-c3ccccc3OC)n2n1 [Example 1467] | – | – | < 100 nM | < 100 nM |
| CN1CCN(c2ccc(Nc3ncc4ccc(-c5ccc(S(C)(=O)=O)cc5)n4n3)cc2F)CC1 [Example 1437, [3-Fluoro-4-(4-methyl-piperazin-1-yl)-phenyl]-[7-(4-methanesulfonyl-phenyl)-pyrrolo[2,1-f][1,2,4]triazin-2-yl]-amine] | – | – | 100 to 1000 nM | < 100 nM |
| CC(C)(C)NS(=O)(=O)c1cccc(-c2ccc3cnc(Nc4ccc5nn(CCN6CCOCC6)cc5c4)nn23)c1 [Example 1345, N-tert-Butyl-3-{2-[2-(2-morpholin-4-yl-ethyl)-2H-indazol-5-ylamino]-pyrrolo[2,1-f][1,2,4]triazin-7-yl}-benzenesulfonamide] | 100 to 1000 nM | < 100 nM | – | – |
| Cn1cnc2ccc(Nc3ncc4ccc(-c5ccc(S(C)(=O)=O)cc5)n4n3)cc21 [Example 1301, [7-(4-Methanesulfonyl-phenyl)-pyrrolo[2,1-f][1,2,4]triazin-2-yl]-(3-methyl-3H-benzimidazol-5-yl)-amine] | 100 to 1000 nM | < 100 nM | – | – |
| COc1cc(N2CCN(C3CCOCC3)CC2)ccc1Nc1ncc2ccc(-c3ccccc3N(C)S(C)(=O)=O)n2n1 [Example 1471, N-[2-(2-{2-Methoxy-4-[4-(tetrahydro-pyran-4-yl)-piperazin-1-yl]-phenylamino}-pyrrolo[2,1-f][1,2,4]triazin-7-yl)-phenyl]-N-methyl-methanesulfonamide] | – | – | < 100 nM | 100 to 1000 nM |
| CN1CCN(C(=O)c2cccc(Nc3ncc4ccc(-c5ccc(S(C)(=O)=O)cc5)n4n3)c2)CC1 [Example 342, {3-[7-(4-Methanesulfonyl-phenyl)-pyrrolo[2,1-f][1,2,4]triazin-2-ylamino]-phenyl}-(4-methyl-piperazin-1-yl)-methanone] | – | – | 1000 to 10000 nM | < 100 nM |
| CC(=O)c1ccccc1-c1ccc2cnc(Nc3ccc(N4CCOCC4)cc3)nn12 [Example 400, 1-{2-[2-(4-Morpholin-4-yl-phenylamino)-pyrrolo[2,1-f][1,2,4]triazin-7-yl]-phenyl}-ethanone] | – | – | 1000 to 10000 nM | < 100 nM |
| CN1CCN(c2ccc(Nc3ncc4ccc(-c5cn(C)cn5)n4n3)cc2)CC1 [Example 1043, [7-(1-Methyl-1H-imidazol-4-yl)-pyrrolo[2,1-f][1,2,4]triazin-2-yl]-[4-(4-methyl-piperazin-1-yl)-phenyl]-amine] | 100 to 1000 nM | < 100 nM | – | – |
| COc1cc2c(cc1Nc1ncc3ccc(-c4ccccc4N(C)S(C)(=O)=O)n3n1)CN(C(=O)OC(C)(C)C)C2 [Example 875, 5-{7-[2-(Methanesulfonyl-methyl-amino)-phenyl]-pyrrolo[2,1-f][1,2,4]triazin-2-ylamino}-6-methoxy-1,3-dihydro-isoindole-2-carboxylic acid tert-butyl ester] | 1000 to 10000 nM | > 10000 nM | – | – |

Other lines, results leading:

| IC50 (ALK; [1]) | IC50 (JAK2; [2]) | IC50 (ALK; ALK Kinase Inhibition) | IC50 (JAK2; JAK2 Kinase Inhibition) | SMILES |
| --- | --- | --- | --- | --- |
| < 100 nM | 100 to 1000 nM | – | – | COc1cc(N(C)C(=O)CN2CCOCC2)ccc1Nc1ncc2ccc(-c3ccccc3OC)n2n1 [Example 472, N-{3-Methoxy-4-[7-(2-methoxy-phenyl)-pyrrolo[2,1-f][1,2,4]triazin-2-ylamino]-phenyl}-N-methyl-2-morpholin-4-yl-acetamide] |
| – | – | < 100 nM | 100 to 1000 nM | COc1cc(N2CCC[C@H](C(=O)N3CCN(C)CC3)C2)ccc1Nc1ncc2ccc(-c3ccccc3OC)n2n1 [Example 461, ((S)-1-{3-Methoxy-4-[7-(2-methoxy-phenyl)-pyrrolo[2,1-f][1,2,4]triazin-2-ylamino]-phenyl}-piperidin-3-yl)-(4-methyl-piperazin-1-yl)-methanone] |
| < 100 nM | < 100 nM | – | – | COc1cc2c(cc1Nc1ncc3ccc(-c4ccccc4OC)n3n1)CN(CC(N)=O)C2 [Example 864, 2-{5-Methoxy-6-[7-(2-methoxy-phenyl)-pyrrolo[2,1-f][1,2,4]triazin-2-ylamino]-1,3-dihydro-isoindol-2-yl}-acetamide] |
| 1000 to 10000 nM | < 100 nM | – | – | N#CCCn1cccc1-c1ccc2cnc(Nc3cccc(N4CCCC4=O)c3)nn12 [Example 1296, 3-(2-{2-[3-(2-oxo-pyrrolidin-1-yl)-phenylamino]-pyrrolo[2,1-f][1,2,4]triazin-7-yl}-pyrrol-1-yl)-propionitrile] |
| < 100 nM | < 100 nM | – | – | CN(c1ccccc1-c1ccc2cnc(Nc3ccc4c(c3)CCC(N3CCOCC3)CC4)nn12)S(C)(=O)=O (centres unmarked) [Example 615, N-Methyl-N-{2-[2-(7-morpholin-4-yl-6,7,8,9-tetrahydro-5H-benzocyclohepten-2-ylamino)-pyrrolo[2,1-f][1,2,4]triazin-7-yl]-phenyl}-methanesulfonamide] |
| – | – | < 100 nM | < 100 nM | COc1ccccc1-c1ccc2cnc(Nc3cccc(N4CCN(CCO)CC4)c3)nn12 [Example 178, 2-(4-{3-[7-(2-Methoxy-phenyl)-pyrrolo[2,1-f][1,2,4]triazin-2-ylamino]-phenyl}-piperazin-1-yl)-ethanol] |
| 100 to 1000 nM | < 100 nM | – | – | CN(c1ccccc1-c1ccc2cnc(Nc3ccc4c(c3)CCN(CC(N)=O)C4)nn12)S(C)(=O)=O [Example 918, 2-(6-{7-[2-(Methanesulfonyl-methyl-amino)-phenyl]-pyrrolo[2,1-f][1,2,4]triazin-2-ylamino}-3,4-dihydro-1H-isoquinolin-2-yl)-acetamide] |
